Assay results published in patent US20080064667A1, “OXAZOLE DERIVATIVES OF TETRACYCLINES” (Wyeth, priority 2003, published 2008).
Values after ≈ are worked out from the molar mass of the structure shown.

Key:
Test in all cases: MIC, broth microdilution (NCCLS)
Format in all cases: cell-based
[1] = system: S. pyogenes* GC4563 (Clinical); conditions: Streptococcus pyogenes, Mueller-Hinton II broth, 18-22 hours at 35° C.
Outline: (§1)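 MICs determined in cation-standard Mueller-Hinton II broth with serial drug dilutions, each strain inoculated to 10^5 CFU/ml. Incubation: 35 °C, ambient air, 18-22 h, following NCCLS broth microdilution guidance.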

[2] = system: E. coli GC4560 (IMP mutant); conditions: Escherichia coli
Outline: as §1

[3] = system: C. albicans GC3066 ATCC (Control); conditions: Candida albicans, Mueller-Hinton II broth, 18-22 hours at 35° C.
[4] = system: S. aureus GC6466 (tet(M)); conditions: Staphylococcus aureus, Mueller-Hinton II broth, 18-22 hours at 35° C.
Outline: as §1

E. coli GC1073 (tet(B)) = conditions: Escherichia coli
Outline: as §1

[5] = system: S. aureus GC4536 (Smith MP -In Vivo); conditions: Staphylococcus aureus, Mueller-Hinton II broth, 18-22 hours at 35° C.
Outline: as §1

[6] = system: E. faecalis GC2242 (Van-resistant); conditions: Enterococcus faecalis, Mueller-Hinton II broth, 18-22 hours at 35° C.
Outline: as §1

[7] = system: S. aureus GC1079 (tet(K)); conditions: Staphylococcus aureus, Mueller-Hinton II broth, 18-22 hours at 35° C.
Outline: as §1

[8] = system: E. coli GC2203 (ATCC Control); conditions: Escherichia coli, Mueller-Hinton II broth, 18-22 hours at 35° C.
Outline: as §1

[9] = system: E. coli GC4559 (parent GC4560); conditions: Escherichia coli, Mueller-Hinton II broth, 18-22 hours at 35° C.
Outline: as §1

[10] = system: H. influenzae<> GC6896 (ATCC Control); conditions: Haemophilus influenzae, Mueller-Hinton II broth, 18-22 hours at 35° C.
Outline: as §1

[11] = system: S. pneumoniae* GC1894 (Clinical); conditions: Streptococcus pneumoniae, Mueller-Hinton II broth, 18-22 hours at 35° C.
Outline: as §1

[12] = system: S. pneumoniae* GC4465 (Clinical); conditions: Streptococcus pneumoniae, Mueller-Hinton II broth, 18-22 hours at 35° C.
Outline: as §1

[13] = system: E. faecalis GC2267 (tet(L) + (M) + (S)); conditions: Enterococcus faecalis
Outline: as §1

[14] = system: E. faecalis GC4555 (ATCC Control); conditions: Enterococcus faecalis, Mueller-Hinton II broth, 18-22 hours at 35° C.
Outline: as §1

[15] = system: S. aureus GC6467 (tet(M) + (K)); conditions: Staphylococcus aureus
Outline: as §1

[16] = system: S. aureus GC1131 (Clinical); conditions: Staphylococcus aureus, Mueller-Hinton II broth, 18-22 hours at 35° C.
Outline: as §1

[17] = system: S. aureus GC2216 (ATCC Control); conditions: Staphylococcus aureus, Mueller-Hinton II broth, 18-22 hours at 35° C.
Outline: as §1

[18] = system: M. catarrhalis* GC6907 (Clinical); conditions: Moraxella catarrhalis, Mueller-Hinton II broth, 18-22 hours at 35° C.
Outline: as §1

E. coli GC2270 (tet(M)) = conditions: Escherichia coli
Outline: as §1

SMILES | MIC [1] [mg/L] | MIC [2] [mg/L] | MIC [3] [mg/L] | MIC [4] [mg/L] | MIC (E. coli GC1073 (tet(B))) [mg/L] | MIC [5] [mg/L] | MIC [6] [mg/L] | MIC [7] [mg/L] | MIC [8] [mg/L] | MIC [9] [mg/L] | MIC [10] [mg/L] | MIC [11] [mg/L] | MIC [12] [mg/L] | MIC [13] [mg/L] | MIC [14] [mg/L] | MIC [15] [mg/L] | MIC [16] [mg/L] | MIC [17] [mg/L] | MIC [18] [mg/L] | MIC (E. coli GC2270 (tet(M))) [mg/L]
CCCCCCOc1ccc(-c2nc3cc(N(C)C)c4c(c3o2)C(=O)C2=C(O)[C@]3(O)C(=O)C(C(N)=O)=C(O)[C@@H](N(C)C)[C@@H]3C[C@@H]2C4)cc1 [Example 32, (6aR,7aS,8S,11aS)-5,8-bis(dimethylamino)-2-[4-(hexyloxy)phenyl]-9,11a,12-trihydroxy-11,13-dioxo-6,6a,7,7a,8,11,11a,13-octahydrotetraceno[2,1-d][1,3]oxazole-10-carboxamide] | 16 (≈ 24.3 µM) | > 64 | > 64 | > 64 | > 64 | > 64 | 64 (≈ 97.2 µM) | > 64 | > 64 | > 64 | > 64 | 8 (≈ 12.1 µM) | 16 (≈ 24.3 µM) | > 64 | 64 (≈ 97.2 µM) | > 64 | > 64 | > 64 | 32 (≈ 48.6 µM) | > 64
CN(C)c1cc2nc(CCl)oc2c2c1C[C@H]1C[C@H]3[C@H](N(C)C)C(O)=C(C(N)=O)C(=O)[C@@]3(O)C(O)=C1C2=O [Example 35, (6aR,7aS,8S,11aS)-2-(chloromethyl)-5,8-bis(dimethylamino)-9,11a,12-trihydroxy-11,13-dioxo-6,6a,7,7a,8,11,11a,13-octahydrotetraceno[2,1-d][1,3]oxazole-10-carboxamide] | 0.25 (≈ 0.471 µM) | 0.5 (≈ 0.942 µM) | > 64 | 1 (≈ 1.88 µM) | 32 (≈ 60.3 µM) | 1 (≈ 1.88 µM) | 1 (≈ 1.88 µM) | 4 (≈ 7.53 µM) | 4 (≈ 7.53 µM) | 8 (≈ 15.1 µM) | 2 (≈ 3.77 µM) | 0.25 (≈ 0.471 µM) | 0.5 (≈ 0.942 µM) | 4 (≈ 7.53 µM) | 1 (≈ 1.88 µM) | 8 (≈ 15.1 µM) | 0.5 (≈ 0.942 µM) | 0.5 (≈ 0.942 µM) | 0.5 (≈ 0.942 µM) | 16 (≈ 30.1 µM)
CN(C)c1cc2nc(CN3CCCC3)oc2c2c1C[C@H]1C[C@H]3[C@H](N(C)C)C(O)=C(C(N)=O)C(=O)[C@@]3(O)C(O)=C1C2=O [Example 37, (6aR,7aS,8S,11aS)-5,8-bis(dimethylamino)-9,11a,12-trihydroxy-11,13-dioxo-2-(pyrrolidin-1-ylmethyl)-6,6a,7,7a,8,11,11a,13-octahydrotetraceno[2,1-d][1,3]oxazole-10-carboxamide] | 1 (≈ 1.77 µM) | 1 (≈ 1.77 µM) | > 64 | 4 (≈ 7.07 µM) |  | 4 (≈ 7.07 µM) | 2 (≈ 3.54 µM) | 4 (≈ 7.07 µM) | 2 (≈ 3.54 µM) | 2 (≈ 3.54 µM) | 4 (≈ 7.07 µM) | 1 (≈ 1.77 µM) | 1 (≈ 1.77 µM) | 4 (≈ 7.07 µM) | 2 (≈ 3.54 µM) | 8 (≈ 14.1 µM) | 4 (≈ 7.07 µM) | 4 (≈ 7.07 µM) | 1 (≈ 1.77 µM) | 4 (≈ 7.07 µM)
